The record followed here is ChEMBL document CHEMBL4017467, “Generation of tricyclic imidazo[1,2-a]pyrazines as novel PI3K inhibitors by application of a conformational restriction strategy” (Bioorg Med Chem Lett, 2017).

Data set [1] is described as follows: in vitro. Particulars: human, liver microsomes.
A short description of data set [2]: in vitro. Conditions: rat, liver microsomes.

Turning to `CS(=O)(=O)N1CCN(Cc2cn3cc(-c4cnc(N)nc4)nc(N4CCOCC4)c3n2)CC1`, the share remaining at 0.25 h, 1 µM was determined as 93% in data set [1] and 99% in data set [2].
